What was measured:
[1] = system: vascular smooth muscle cells (VSMC) derived from WKY rat aortic tunica media; experiment: Migration ability of cultured VSMC (96 well chemotaxis chamber, A595); assay type: cell-based; conditions: for A595 (VSMC migrated to the lower surface of the membrane): Y-27632 10 μM, cultured for 18 hours
Method: (2) Effect on Migration Ability of Cultured VSMC (Method) A serum free medium or a medium containing 10% serum, which contained the test drug (Y-27632, 10 μM), was placed in a 96 well chemotaxis lower chamber, and a serum free medium containing the test drug was placed in 96 well chemotaxis upper and lower chambers where VSMC were suspended, and then cultured for 18 hours. The VSMC migrated to the lower surface of the membrane were stained with QuickDiff (International Reagents Corporation) and absorbance was measured at A595.

[2] = system: vascular smooth muscle cells (VSMC) derived from WKY rat aortic tunica media; experiment: Proliferation ability of VSMC ([3H] thymidine uptake method); assay type: cell-based; conditions: for [3H] thymidine uptake: 24 hours of culture, n = 5
Method: (1) Effect on Proliferation Ability of Vascular Smooth Muscle Cells (VSMC) Derived from WKY Rat Aortic Tunica Media (Method) VSMC were separated and cultured according to the method of Yamamoto et al. (Yamamoto H, et al., Br. J. Exp. Pathol. 64; 156-165, 1983). The proliferation ability of VSMC was determined according to the method of Berk et al. [[^3H] thymidine uptake method; Berk B C, et al., J. Cell Physiol. 137; 391-401, 1988]. A DMEM medium containing 10% serum was changed every two days and the cells were cultured on a dish. The cells after 5 to 10 passages were subjected to the experiment. VSMC were cultured in a medium containing 1.0% serum for 24 hours and in a serum free medium for 24 hours to synchronize the cell cycle. The VSMC were transferred to a medium containing 10% fetal calf serum or a serum free medium and [^3H] thymidine (2 μCi/ml) was added to each medium to label VSMC. The test drug (Y-27632) (10 μM or 30 μM) waw simultaneously added, and after 24 hours of culture, VSMC were recovered, admixed with a scintillator (ACSII, Amersham) and subjected to the measurement of radioactivity by a liquid scintillation counter (LS6500, Beckman), based on which the [^3H] thymidine uptake was measured.

[3] = system: left carotid artery intima of WKY rats; experiment: Proliferation of regenerated intima after balloon injury of carotid artery in rat; assay type: in vivo; conditions: 30 mg/kg intraperitoneal, consecutively from 3 days before operation, 14 days after the operation, control 1.88±0.24, sham 0.03±0.01
Method: Effect on Proliferation of Regenerated Intima after Balloon Injury of Carotid Artery in Rat 2F Fogarty catheter was inserted from the outer left carotid artery of 8-week-old male WKY rats under anesthesia and inflated in the left common carotid artery, whereby intima was detached in the entire length. Physiological saline was consecutively administered to a control group, and the test drug (Y-27632) (30 mg/kg) was consecutively administered to a test group, wherein both groups underwent intraperitoneal administration starting from 3 days before operation. The rats free of the intima detachment treatment were used as a sham group. At 14 days after the operation, left carotid artery was subjected to perfusion fixation and removed thereafter, stained with HE, and a new intima thickness/medial thickness (I/M) ratio was measured.

Which “A595 (VSMC migrated to the lower surface of the membrane)” value ([1]; +10% FCS) does the source give for C[C@@H](N)[C@H]1CC[C@H](C(=O)Nc2ccncc2)CC1 [Compound Y-27632, (+)-trans-4-(1-aminoethyl)-1-(4-pyridylcarbamoyl)cyclohexane 2HCl.1H2O] here?
The value was 0.036 ± 0.010 arbitrary unit/well.

And the “A595 (VSMC migrated to the lower surface of the membrane)” value ([1]; FCS-Free)?
The value was 0.007 ± 0.003 arbitrary unit/well.

What about the “effect on migration ability of VSMC (in words)” value ([1]; both medium containing 10% serum and serum free medium) of the same compound?
The value was “suppressed the migration ability”.

What about the “[3H] thymidine uptake” value ([2]; +10% FCS, Y-27632 10 μM) of the same compound?
Its value is 360153 ± 10425 dpm/dish.

What about the “[3H] thymidine uptake” value ([2]; +10% FCS, Y-27632 30 μM) of the same compound?
Its value is 366089 ± 12882 dpm/dish.

What about the “[3H] thymidine uptake” value ([2]; FCS-free medium, Y-27632 10 μM) of the same compound?
Its value is 150381 ± 6515 dpm/dish.

What about the “[3H] thymidine uptake” value ([2]; FCS-free medium, Y-27632 30 μM) of the same compound?
Its value is 127767 ± 2482 dpm/dish.

And the “effect on [3H] thymidine uptake (in words)” value ([2]; serum stimulation group and control group (serum free))?
The value was “did not affect”.

And the “new intima thickness/medial thickness (I/M) ratio” value [3]?
Its value is 0.46±0.22.
